Measurements reported in ChEMBL document CHEMBL1132088, “Three-dimensional structure-function relationship of vitamin D: side chain location and various activities” (1999).

Legend:
[1] = Gene transcriptional activity against osteopontin (OPN); assay type: functional
[2] = target: T1, Vitamin D3 receptor (Sus scrofa) (UniProt A3RGC1); experiment: (§1) Affinity for porcine Vitamin D3 receptor; set-up: reference not given here
T1 sequence (whole entry): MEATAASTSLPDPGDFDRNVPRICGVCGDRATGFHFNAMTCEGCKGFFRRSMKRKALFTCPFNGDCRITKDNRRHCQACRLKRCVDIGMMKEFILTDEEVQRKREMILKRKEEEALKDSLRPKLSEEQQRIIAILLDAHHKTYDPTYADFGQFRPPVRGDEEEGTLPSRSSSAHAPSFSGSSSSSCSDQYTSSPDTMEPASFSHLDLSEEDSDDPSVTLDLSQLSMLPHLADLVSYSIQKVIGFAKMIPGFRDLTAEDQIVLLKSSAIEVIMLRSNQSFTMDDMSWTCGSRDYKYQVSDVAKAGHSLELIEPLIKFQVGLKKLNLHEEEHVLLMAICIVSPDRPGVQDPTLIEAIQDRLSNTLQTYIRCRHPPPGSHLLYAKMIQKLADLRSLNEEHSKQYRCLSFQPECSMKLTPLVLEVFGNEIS

[3] = target: T2, Vitamin D3 receptor (Bos taurus) (UniProt Q28037); experiment: Affinity for bovine Vitamin D3 receptor; set-up: reference not given here
T2 sequence (whole entry): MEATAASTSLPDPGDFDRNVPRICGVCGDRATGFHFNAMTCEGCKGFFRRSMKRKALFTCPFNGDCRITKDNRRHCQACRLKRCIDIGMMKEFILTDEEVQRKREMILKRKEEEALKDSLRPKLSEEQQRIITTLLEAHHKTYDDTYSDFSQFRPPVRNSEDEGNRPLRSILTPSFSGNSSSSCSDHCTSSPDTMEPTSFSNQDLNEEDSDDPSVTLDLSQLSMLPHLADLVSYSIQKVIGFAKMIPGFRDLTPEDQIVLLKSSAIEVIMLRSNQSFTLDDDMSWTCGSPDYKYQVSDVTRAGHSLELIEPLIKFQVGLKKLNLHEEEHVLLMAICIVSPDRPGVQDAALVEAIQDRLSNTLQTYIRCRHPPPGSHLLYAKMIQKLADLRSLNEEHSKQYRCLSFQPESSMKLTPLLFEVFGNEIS

[4] = target: T3, Vitamin D-binding protein (Rattus norvegicus) (UniProt P04276); experiment: Binding affinity for rat Vitamin D binding protein; set-up: reference not given here
T3 sequence (whole entry): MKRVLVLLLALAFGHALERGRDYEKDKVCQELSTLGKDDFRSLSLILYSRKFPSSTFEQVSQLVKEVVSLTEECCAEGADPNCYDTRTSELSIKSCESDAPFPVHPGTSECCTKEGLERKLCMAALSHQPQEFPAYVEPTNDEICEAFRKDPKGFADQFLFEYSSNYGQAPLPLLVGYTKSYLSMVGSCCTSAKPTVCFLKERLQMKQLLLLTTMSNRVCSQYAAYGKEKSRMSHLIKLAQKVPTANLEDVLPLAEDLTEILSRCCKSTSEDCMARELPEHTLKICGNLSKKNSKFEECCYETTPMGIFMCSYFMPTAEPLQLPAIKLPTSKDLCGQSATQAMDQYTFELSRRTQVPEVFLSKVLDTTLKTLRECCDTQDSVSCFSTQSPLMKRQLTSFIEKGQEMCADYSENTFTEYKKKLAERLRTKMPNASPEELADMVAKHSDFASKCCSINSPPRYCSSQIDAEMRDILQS

[5] = system: Rattus norvegicus; experiment: In vivo calcemic activity expressed as relative activity for Bone calcium mobilization (BCM) in vitamin D deficient rats
[6] = system: Rattus norvegicus; experiment: In vivo calcemic activity expressed as relative activity for Intestinal calcium transport (ICA) in vitamin D deficient rats
[7] = system: HL-60; experiment: In vitro activity expressed as relative activity to induce the differentiation of human promyelocytic leukemia (HL-60) cells by NBT reduction assay
[8] = system: MCF7; experiment: In vitro activity expressed as relative activity to inhibit the proliferation of human breast cancer cells (MCF-7) by measuring [3H]thymidine incorporation
[9] = system: Keratinocyte cell line; experiment: In vitro activity expressed as relative activity to inhibit the proliferation of primary cultures of human foreskin keratinocytes by measuring [3H]thymidine incorporation
[10] = target: T1, Vitamin D3 receptor (Sus scrofa); experiment: as §1
[11] = system: Keratinocyte cell line; experiment: In vitro activity expressed as relative activity to inhibit the proliferation of primary cultures of human foreskin keratinocytes by measuring [3H]thymidine incorporation; remark: listed apart in the source
[12] = system: MCF7; experiment: In vitro activity expressed as relative activity to inhibit the proliferation of human breast cancer cells (MCF-7) by measuring [3H]thymidine incorporation; remark: listed apart in the source

| SMILES | relative activity [1] | Activity [2] | Activity [3] | Activity [4] | relative activity [5] | relative activity [6] | relative activity [7] | relative activity [8] | relative activity [9] | Activity [10] | relative activity [11] | relative activity [12] |
| --- | --- | --- | --- | --- | --- | --- | --- | --- | --- | --- | --- | --- |
| C=C1/C(=C\C=C2/CCC[C@]3(C)[C@@H]([C@@H](C)[C@@H](C)CCC(C)(C)O)CC[C@@H]23)C[C@@H](O)C[C@@H]1O | 3% | 1 | 0.4 | < 0.25 | 5% | < 1% | 8% | 70% | 60% |  |  |  |
| C=C1/C(=C\C=C2/CCC[C@]3(C)[C@@H]([C@H](C)[C@@H](C)CCC(C)(C)O)CC[C@@H]23)C[C@@H](O)C[C@@H]1O | 22% | 33 | 33 | 67 | 26% | 50% | 100% |  |  |  |  |  |
| C=C1/C(=C\C=C2/CCC[C@]3(C)[C@@H]([C@@H](C)CCCC(C)(C)O)CC[C@@H]23)C[C@@H](O)C[C@@H]1O |  |  |  | 4000 |  |  |  |  |  | 500 |  |  |
| C=C1/C(=C\C=C2/CCC[C@]3(C)[C@@H]([C@H](C)[C@H](C)CCC(C)(C)O)CC[C@@H]23)C[C@@H](O)C[C@@H]1O | 1% | 1.7 | 2 | 0.45 | 32% | 25% | 1.3% |  |  |  |  |  |
| C=C1/C(=C\C=C2/CCC[C@]3(C)[C@@H]([C@H](C)CCCC(C)(C)O)CC[C@@H]23)C[C@@H](O)C[C@@H]1O [CALCITRIOL] | 100% | 100 | 100 | 100 | 100% | 100% | 100% | 100% |  |  | 100% |  |
| C=C1/C(=C\C=C2/CCC[C@]3(C)[C@@H]([C@@H](C)[C@H](C)CCC(C)(C)O)CC[C@@H]23)C[C@@H](O)C[C@@H]1O | 10000% | 2000 | 1100 | < 0.25 | 220% | 51% | 12000% |  | 9000% |  |  | 15000% |
